Assay results reported in PMC12723449, “From Pharmacophore to Warhead: NAD^+‐Targeting Triazoles as Mechanism‐Based Sirtuin Inhibitors” (Angewandte Chemie (International Ed. in English), 2025).

T1: SIRT1 (Homo sapiens, UniProt Q96EB6)
T1 construct: For assay experiments, strep-tagged human SIRT1134−747 and SIRT256-356 were expressed and purified as previously; Strep-tag; made in house; host or cells: E. coli BL21 Star (DE3)
T1 sequence (Q96EB6 134-747 limits assumed): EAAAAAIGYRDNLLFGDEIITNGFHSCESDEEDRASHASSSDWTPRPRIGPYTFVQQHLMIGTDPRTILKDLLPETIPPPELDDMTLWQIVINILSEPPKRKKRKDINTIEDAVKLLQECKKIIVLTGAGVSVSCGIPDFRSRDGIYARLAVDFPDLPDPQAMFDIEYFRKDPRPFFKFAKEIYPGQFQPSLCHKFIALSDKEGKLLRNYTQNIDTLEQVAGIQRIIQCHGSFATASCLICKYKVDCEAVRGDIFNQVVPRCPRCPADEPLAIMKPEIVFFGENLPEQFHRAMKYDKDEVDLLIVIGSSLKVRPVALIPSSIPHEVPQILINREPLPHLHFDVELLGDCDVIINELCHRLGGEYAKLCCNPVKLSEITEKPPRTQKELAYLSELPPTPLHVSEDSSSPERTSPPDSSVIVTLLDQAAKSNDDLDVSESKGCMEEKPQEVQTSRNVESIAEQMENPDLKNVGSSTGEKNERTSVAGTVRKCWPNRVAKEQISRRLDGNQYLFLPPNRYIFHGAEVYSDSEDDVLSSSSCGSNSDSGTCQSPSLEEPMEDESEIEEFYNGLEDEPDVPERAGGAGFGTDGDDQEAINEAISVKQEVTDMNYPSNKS

T2: SIRT3 (Homo sapiens, UniProt Q9NTG7)
T2 construct: Human SIRT3118-395 was expressed and purified as previously described.[5]; made in house
T2 sequence (Q9NTG7 118-395 limits assumed): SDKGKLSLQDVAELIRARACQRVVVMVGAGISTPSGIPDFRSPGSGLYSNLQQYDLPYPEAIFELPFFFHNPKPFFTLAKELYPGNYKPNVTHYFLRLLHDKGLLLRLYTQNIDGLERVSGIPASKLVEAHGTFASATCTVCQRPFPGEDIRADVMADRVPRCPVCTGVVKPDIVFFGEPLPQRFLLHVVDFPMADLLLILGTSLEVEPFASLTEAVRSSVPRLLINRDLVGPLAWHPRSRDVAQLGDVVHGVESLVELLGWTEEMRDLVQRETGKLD

T3: SIRT2 (Homo sapiens, UniProt Q8IXJ6)
T3 construct: For assay experiments, strep-tagged human SIRT1134−747 and SIRT256-356 were expressed and purified as previously; Strep-tag; made in house; host or cells: E. coli BL21 Star (DE3)
T3 sequence (Q8IXJ6 56-356 limits assumed): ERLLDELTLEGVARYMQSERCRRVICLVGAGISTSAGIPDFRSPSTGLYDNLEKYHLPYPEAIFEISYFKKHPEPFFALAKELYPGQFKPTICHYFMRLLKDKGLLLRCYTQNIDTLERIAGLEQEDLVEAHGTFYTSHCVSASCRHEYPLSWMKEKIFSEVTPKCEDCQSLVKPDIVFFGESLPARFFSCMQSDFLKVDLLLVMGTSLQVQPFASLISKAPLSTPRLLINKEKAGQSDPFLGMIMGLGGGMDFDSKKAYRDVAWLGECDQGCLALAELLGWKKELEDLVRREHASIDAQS

T4: NanoLuc–SIRT2 fusion protein in HEK293T cells (Homo sapiens, UniProt Q8IXJ6)
T4 construct: HEK293T cells stably expressing the NanoLuc-SIRT250-364-fusion target protein were seeded into the coated plates; expressed in transfected cells; host or cells: HEK293T (stably expressing)
T4 sequence (Q8IXJ6 50-364 limits assumed): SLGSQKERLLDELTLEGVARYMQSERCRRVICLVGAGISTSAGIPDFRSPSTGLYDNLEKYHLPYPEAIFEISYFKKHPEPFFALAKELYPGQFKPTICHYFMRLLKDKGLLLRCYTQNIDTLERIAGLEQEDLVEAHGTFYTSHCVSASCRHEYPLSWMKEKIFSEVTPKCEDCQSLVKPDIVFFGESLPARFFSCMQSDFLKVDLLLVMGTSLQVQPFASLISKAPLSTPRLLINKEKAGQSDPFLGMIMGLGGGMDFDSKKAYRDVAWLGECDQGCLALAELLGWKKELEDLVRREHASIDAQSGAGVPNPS

T5: NanoLuc–SIRT2 fusion protein in HEK293T cells (Homo sapiens, UniProt Q8IXJ6)
T5 construct: transfected HEK293T cells expressing the NanoLuc-tagged SIRT250-356 fusion protein were used instead of transient; expressed in transfected cells; host or cells: HEK293T (stably transfected)
T5 sequence (Q8IXJ6 50-356 limits assumed): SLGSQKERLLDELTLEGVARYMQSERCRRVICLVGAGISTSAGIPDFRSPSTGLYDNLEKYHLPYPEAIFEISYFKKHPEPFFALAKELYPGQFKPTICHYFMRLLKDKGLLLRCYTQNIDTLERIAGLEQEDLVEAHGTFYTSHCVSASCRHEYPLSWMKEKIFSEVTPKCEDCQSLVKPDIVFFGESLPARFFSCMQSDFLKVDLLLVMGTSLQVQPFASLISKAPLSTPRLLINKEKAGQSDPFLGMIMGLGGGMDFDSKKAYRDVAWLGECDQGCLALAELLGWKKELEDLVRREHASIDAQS

B1: Sirtuin 2 (SIRT2) (enzyme)
chain: MAEPDPSHPLETQAGKVQEAQDSDSDSEGGAAGGEADMDFLRNLFSQTLSLGSQKERLLDELTLEGVARYMQSERCRRVICLVGAGISTSAGIPDFRSPSTGLYDNLEKYHLPYPEAIFEISYFKKHPEPFFALAKELYPGQFKPTICHYFMRLLKDKGLLLRCYTQNIDTLERIAGLEQEDLVEAHGTFYTSHCVSASCRHEYPLSWMKEKIFSEVTPKCEDCQSLVKPDIVFFGESLPARFFSCMQSDFLKVDLLLVMGTSLQVQPFASLISKAPLSTPRLLINKEKAGQSDPFLGMIMGLGGGMDFDSKKAYRDVAWLGECDQGCLALAELLGWKKELEDLVRREHASIDAQSGAGVPNPSTSASPKKSPPPAKDEARTTEREKPQ

Legend:
[1] = biological target: T1, SIRT1; experiment: Fluorescence-based deacetylation assay (ZMAL-assay), SIRT1; assay type: biochemical; settings: 37 °C, assay limit 0.10 µM; for IC50: read-out: SIRT1 (deac.) IC50
Experimental: (§1) Determination of IC50 values (SIRT1, SIRT2, SIRT3) via fluorescence-based deacetylation assay […]
(§2) The fluorescence-based deacetylation assay was conducted in a black 384-well microplate (OptiPlate-384 F, PerkinElmer) with a total volume of 30 µL per well and a final DMSO concentration of 2% (v/v) according to a […]
(§3) concentration of 100 nM) in assay buffer (50 mM Tris, 137 mM NaCl, 2.7 mM KCl, 1m MgCl2, 0.01% Tween, 0.05 mg/mL BSA, 0.2 mM TCEP, pH 8.0), 5 µL of substrate (ZMAL, final concentration of 10.5 µM), 5 µL of NAD+ (final concentration of 500 µM) and 10 µL of inhibitor solution (final concentration of 30 µM – 0.014 µM, serial 1:3 dilutions) was incubated at 37 °C and 300 rpm for 4 h. A solution of trypsin (final concentration of 0.5 mg/mL) and nicotinamide (final concentration of 4 mM) was added and incubated at 37 °C and 300 rpm for 30 min to stop the reaction. Samples with 2% (v/v) DMSO instead of inhibitor were prepared as a positive control, and samples with 2% (v/v) DMSO instead of SIRT enzyme were prepared as a negative control. Fluorescence intensity was measured with a microplate reader (λEx = 380-10 nm, λEm = 460 nm, BMG POLARstar Optima, BMG Labtech, Germany). IC50 values were then determined using a nonlinear regression fit with Origin Pro 2019 software. All experiments were performed at least in duplicates. […]

[2] = biological target: T2, SIRT3; experiment: Fluorescence-based deacetylation assay (ZMAL-assay), SIRT3; assay type: biochemical; settings: 37 °C, assay limit 0.10 µM; for IC50: read-out: SIRT3 (deac.) IC50
Experimental: as §1, §2, §3

[3] = biological target: T3, SIRT2; experiment: Fluorescence-based deacetylation assay (ZMAL-assay), SIRT2; assay type: biochemical; settings: 37 °C, assay limit 0.10 µM, read-out: SIRT2 (deac.) IC50
Experimental: as §1, §2, §3

[4] = biological target: T3, SIRT2; experiment: Fluorescence-based demyristoylation assay (BSA-Assay); assay type: biochemical
Experimental: Determination of IC50 values (SIRT2) via fluorescence-based demyristoylation assay (BSA-Assay) The fluorescence-based demyristoylation assay was conducted in a continuous manner in a black 384-well microplate (OptiPlate-384 F, PerkinElmer) with a total volume of 40 µL per well and a final DMSO concentration of 5% (v/v), following a published procedure.[9] A mixture of 14 µL SIRT2 (final concentration of 1 nM) in assay buffer (20 mM Tris, 150 mM NaCl, […], pH 7.8) freshly supplemented with 2 mg/mL of BSA, 14 µL of substrate (F4, KM = 33 ± 5 nM[9], final concentration of 40 nM) and 2 µL of inhibitor solution (final concentration of 100 µM – 0.002 µM, serial 1:2 or 1:4 dilutions) was incubated at 25 °C and 350 rpm for 5 min. Samples with 5% (v/v) DMSO instead of inhibitor were measured as a positive control, and samples with assay buffer and 5% (v/v) DMSO instead of SIRT2 were measured as a negative control. The reaction was started with the addition of 10 µL NAD+ (final concentration of 500 µM) and the product formation was immediately monitored by the change of the fluorescence intensity at 25 °C for 20 min. For NAD+ preincubation experiments, instead of the substrate, 10 µL of NAD+ (final concentration of 500 µM) was added to the solution and incubated at 25 °C and 350 rpm for 15 min. The reaction was started with the addition of 14 µL substrate (final concentration of 40 nM) and the product formation was immediately monitored by the change of the fluorescence intensity at 25 °C every 60 s for 20 min using a microplate reader (λEx = 485 nm, λEm = 530-10 nm, BMG POLARstar Optima, BMG Labtech, Germany).
The activity was normalized using the positive control as 100% and the negative control as 0%. The normalized activity (v/v0) was plotted as a function of the logarithm of the inhibitor concentration [I], and a nonlinear fit was performed according to the following equation to determine the IC50 value.[9] […]

[5] = biological target: T4, NanoLuc–SIRT2 fusion protein in HEK293T cells; experiment: Kinetic NanoBRET washout assay (target residence time); assay type: cell-based; settings: 8 µM (10 × EC50), 2 h preincubation, 2 h washout
Experimental: NanoBRET washout assay for determination of target residence time
A NanoBRET-based washout assay was used to assess the target residence time of inhibitors for SIRT2 in living cells. White, flat-bottom 96-well plates (PerkinElmer) were pre-coated with poly-L-lysine (Sigma-Aldrich) to enhance cell adherence. Briefly, each well was treated with poly-L-lysine solution for 5 min at room temperature, followed by removal of the coating solution and air-drying before seeding.
Cells were treated with the indicated inhibitor
After incubation, the inhibitor-containing medium was aspirated, and a washout procedure was performed to remove unbound inhibitor. Each well was washed twice by sequential addition and removal of 100 µL Opti-MEM (Thermo Fisher Scientific). Following the final wash, 90 µL Opti-MEM was added per well, followed by 100 µL of 2× Nano-Glo® substrate solution (Promega) and 10 µL of 20× SIRT2-Tracer solution.
BRET measurements were recorded kinetically using a Tecan Spark® plate reader equipped with donor (460 nm)
The BRET ratio was monitored over time to track the re-binding of the

[6] = biological target: T5, NanoLuc–SIRT2 fusion protein in HEK293T cells; experiment: NanoBRET cellular target engagement assay; assay type: cell-based; settings: without digitonin
Experimental: The NanoBRET target engagement assay was performed as previously described[2] with the modification that stably transfected HEK293T cells expressing the NanoLuc-tagged SIRT250-356 fusion protein were used instead of transient transfection. Briefly, HEK293T-NLuc- SIRT250-356 cells were cultured under standard conditions (37 °C, 5% CO2) in DMEM supplemented with 10% fetal bovine serum, 2 mM glutamine, and 300 µg/mL hygromycin as a selection marker. For the assay, cells were trypsinized, resuspended in Opti-MEM® reduced serum medium, and adjusted to a concentration of 2 × 10^5 cells per mL. […]
µM was used. Serially diluted inhibitor and tracer were added to the cell suspension, and 100 μL were seeded into 96-well white, sterile, nonbinding surface plates. To evaluate the cellular permeability of LTDi-1 (6), the non-ionic detergent digitonin (50 µg/ml) was added. Plates were incubated at 37 °C with 5% CO2 for 2 h. For BRET measurements, NanoBRET NanoGlo Substrate (Promega cat. #N1571) was added to the wells according to the […]
All measurements were performed using the 2102 EnVisionTM Multilabel Reader (PerkinElmer), equipped with a 460 nm filter (donor) and a 615 nm filter (acceptor). The BRET ratio was calculated as the ratio of acceptor to donor signal, and data were normalized to vehicle-treated controls. Apparent intracellular binding affinities (EC50 values) were determined by fitting dose-response curves using nonlinear regression analysis in GraphPad Prism. […]

[7] = biological target: T3, SIRT2; experiment: Differential scanning fluorimetry (DSF) / fluorescence thermal shift assay; assay type: binding; settings: 10 µM compound, with NAD+ addition
Experimental: Differential scanning fluorimetry (DSF) assay
Differential scanning fluorimetry assays were performed in white 96-well plates (Hard-Shell PCR Plates, BioRad, USA) with a total volume of 20 µL per well and a final DMSO concentration of 5% (v/v), following a published
A solution of 10 µL SIRT2 (final concentration of 6.0 µM) and SYPRO Orange (5x, Sigma-Aldrich, Germany) in assay buffer (25 mM Tris-HCl, 150 mM NaCl, 1 mM DTT, pH 8.0) was mixed with 10 µL of compound and incubated at 25 °C and 350 rpm for 5 min. Where applicable, NAD+ was added to a final concentration of 2.5 mM. Fluorescence
(C1000 Touch™ Thermal Cycler, CFX96™ Real-Time System, BioRad, USA). Melting temperatures were determined using GraphPad Prism, following a published procedure.[6]

[8] = biological target: BT-6 (biotinylated analogue of compound 6); experiment: BLI; SIRT2 (25–400 nM) incubated 1 h with BT-6 (500 nM) and NAD+ (500 µM), then immobilised on streptavidin-coated biosensors; dissociation followed
[9] = biological target: BT-6 (biotinylated analogue of compound 6); experiment: BLI; SIRT2 (25–400 nM) incubated 1 h with BT-6 (500 nM) without NAD+, then immobilised on streptavidin-coated biosensors; dissociation followed
[10] = 15 min NAD+ preincubation, read-out: IC50, SIRT2 demyristoylation after NAD+ preincubation
[11] = BSA-Assay, 25 °C, read-out: SIRT2 (demyr.) IC50

Molecule | IC50 [1] [µM] | IC50 [2] [µM] | IC50 [3] [nM] | IC50 [4, 10] [nM] | IC50 [4, 11] [nM] | other results
CCCCCCCCCCCCc1cn(CCCC[C@H](NC(=O)[C@H](CCCCN)NC(C)=O)C(N)=O)nn1 [Compound 6a] | 0.23 ± 0.02 | 8.2 ± 0.4 | < 100 | 36 ± 2 | 460 ± 40 | –
CCCCCCCCCCCCc1cn(CCCC[C@H](NC(=O)[C@H](CCCCN)NC(=O)[C@@H]2CCCN2C(C)=O)C(=O)N[C@H](C(N)=O)[C@@H](C)O)nn1 [Compound 6b] | – | – | – | – | – | inhibition after washout [5]: retained full inhibition throughout; extent of cellular target engagement [6]: complete target engagement
Cc1cc(C)nc(SCC(=O)Nc2ncc(Cc3cccc(OCc4cn(Cc5ccc(OCCN6CCOCC6)cc5)nn4)c3)s2)n1 [Compound 2, reference compound] | – | – | 120 ± 10 | – | 50 ± 10 | SIRT1 (deac.) IC50 [1]: n.i.; SIRT3 (deac.) IC50 [2]: n.i.
CCCCCCCCCCCCc1cn(CCC[C@H](NC(=O)[C@H](CCCCN)NC(=O)[C@@H]2CCCN2C(=O)[C@H](CC(C)C)NC(=O)[C@H](C)NC(=O)[C@H](CCC(=O)O)NC(C)=O)C(=O)N[C@H](C(=O)NCC(=O)NCC(N)=O)[C@@H](C)O)nn1 [Compound 5] | 14.2 ± 1.5 | 3.3 ± 0.2 | < 100 | 760 ± 250 | 1940 ± 510 | ΔTm at 10 µM [7]: 9.9 °C
B1 | – | – | – | – | – | koff [8]: 0.00026 s⁻¹; koff [9]: 0.0071 s⁻¹
